These results are taken from BindingDB's records for doi:10.1111/cbdd.12609 (Tehran University of Medical Sciences, 2015).

Some results are limits rather than exact numbers.

One assay concerns the target Acetylcholinesterase (Electrophorus electricus, UniProt O42275). In words: AChE and BChE Inhibition Assay. Conditions: pH 8; 25 °C. As for the experimental part:
(§1) To evaluate in vitro AChE activity, modified Ellman's method was performed using a 96-well plate reader (BioTek ELx808, Highland Park, IL, USA). Each well contained 50 µL potassium phosphate buffer (KH2PO4/K2HPO4, 0.1 M, pH 8), 25 µL sample dissolved in 50% methanol and 50% DMSO, and 25 µL enzyme (final concentration 0.22 U/mL in buffer). They were preincubated for 20 min at room temperature, and then, 125 µL DTNB (3 mM in buffer) was added. […] The IC50 values were determined graphically from inhibition curves (log inhibitor concentration versus percent of inhibition). A control experiment was performed under the same conditions without inhibitor and the blank contained buffer, DMSO, DTNB, and substrate. The described method was also used for BChE inhibition assa

The target in assay [1] is Carboxylic ester hydrolase (Equus caballus, UniProt Q9N1N9). The assay is described as follows: AChE and BChE Inhibition Assay. Conditions: pH 8; 25 °C. As for the experimental part:
as §1

Chain of Carboxylic ester hydrolase (Q9N1N9 whole entry): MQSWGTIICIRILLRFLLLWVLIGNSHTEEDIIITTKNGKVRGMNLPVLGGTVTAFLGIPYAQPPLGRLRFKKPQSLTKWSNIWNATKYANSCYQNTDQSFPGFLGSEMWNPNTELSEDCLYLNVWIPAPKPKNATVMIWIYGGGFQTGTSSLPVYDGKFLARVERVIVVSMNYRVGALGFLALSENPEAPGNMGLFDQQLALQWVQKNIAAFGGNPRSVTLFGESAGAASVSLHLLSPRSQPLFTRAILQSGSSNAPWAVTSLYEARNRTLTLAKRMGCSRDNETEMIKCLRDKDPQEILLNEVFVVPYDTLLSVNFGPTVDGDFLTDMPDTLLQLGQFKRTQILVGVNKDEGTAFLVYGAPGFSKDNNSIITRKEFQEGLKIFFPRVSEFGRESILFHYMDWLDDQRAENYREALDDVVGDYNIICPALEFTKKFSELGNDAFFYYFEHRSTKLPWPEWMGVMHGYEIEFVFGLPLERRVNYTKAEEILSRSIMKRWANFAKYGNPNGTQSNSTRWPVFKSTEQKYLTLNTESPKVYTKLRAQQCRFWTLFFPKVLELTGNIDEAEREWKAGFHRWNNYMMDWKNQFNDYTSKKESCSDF
Chain of Acetylcholinesterase (O42275 whole entry): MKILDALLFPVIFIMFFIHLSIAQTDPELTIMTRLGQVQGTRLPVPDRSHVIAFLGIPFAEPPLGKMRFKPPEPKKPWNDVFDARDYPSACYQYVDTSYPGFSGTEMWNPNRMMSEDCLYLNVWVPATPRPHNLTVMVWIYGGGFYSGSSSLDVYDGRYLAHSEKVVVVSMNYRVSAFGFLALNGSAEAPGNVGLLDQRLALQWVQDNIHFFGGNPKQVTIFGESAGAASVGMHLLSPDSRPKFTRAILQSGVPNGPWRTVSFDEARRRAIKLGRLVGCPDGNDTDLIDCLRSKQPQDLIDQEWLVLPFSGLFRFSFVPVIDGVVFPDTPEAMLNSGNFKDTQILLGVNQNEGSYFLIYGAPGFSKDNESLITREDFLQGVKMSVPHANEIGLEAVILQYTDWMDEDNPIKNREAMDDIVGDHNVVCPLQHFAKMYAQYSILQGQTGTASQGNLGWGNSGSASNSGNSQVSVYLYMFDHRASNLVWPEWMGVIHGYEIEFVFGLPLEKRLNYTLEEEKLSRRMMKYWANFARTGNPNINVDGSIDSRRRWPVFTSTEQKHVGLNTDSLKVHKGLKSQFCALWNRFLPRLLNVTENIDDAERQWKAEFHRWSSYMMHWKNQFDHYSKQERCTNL

On to `O=c1c2ccccc2n(Cc2cn(Cc3nc(-c4ccc(Cl)cc4)no3)nn2)c2ccc(Cl)cc12` [2-Chloro-10-((1-((3-(4-chlorophenyl)-1,2,4-oxadiazol-5-yl)methyl)-1H-1,2,3-triazol-4-yl)methyl)acridin-9(10H)-one (10n)], for which the concentration for half-maximal inhibition (IC50) on Acetylcholinesterase was 44.9 µM; in assay [1], > 100 µM.

Take `COc1ccc(-c2noc(Cn3cc(Cn4c5ccccc5c(=O)c5cccc(Cl)c54)nn3)n2)cc1` [4-Chloro-10-((1-((3-(4-methoxyphenyl)-1,2,4-oxadiazol-5-yl)methyl)-1H-1,2,3-triazol-4-yl)methyl)acridin-9(10H)-one (10g)]: the IC50 (at Acetylcholinesterase; in assay [1]) was > 100 µM throughout.

On to `O=c1c2ccccc2n(Cc2cn(Cc3nc(-c4ccc(Cl)cc4)no3)nn2)c2ccc(Br)cc12` [2-Bromo-10-((1-((3-(4-chlorophenyl)-1,2,4-oxadiazol-5-yl)methyl)-1H-1,2,3-triazol-4-yl)methyl)acridin-9(10H)-one (10p)], for which the 50% inhibitory concentration (IC50) (against Acetylcholinesterase; in assay [1]) was > 100 µM in each case.

Take `COc1ccc2c(c1)c(=O)c1ccccc1n2Cc1cn(Cc2nc(-c3ccc(C)cc3)no2)nn1` [2-Methoxy-10-((1-((3-(p-tolyl)-1,2,4-oxadiazol-5-yl)methyl)-1H-1,2,3-triazol-4-yl)methyl)acridin-9(10H)-one (10i)]: the IC50 (against Acetylcholinesterase; in assay [1]) was > 100 µM each time.

For `COc1ccc(-c2noc(Cn3cc(Cn4c5ccccc5c(=O)c5cc(OC)ccc54)nn3)n2)cc1` [2-Methoxy-10-((1-((3-(4-methoxyphenyl)-1,2,4-oxadiazol-5-yl)methyl)-1H-1,2,3-triazol-4-yl)methyl)acridin-9(10H)-one (10j)], the IC50 (against Acetylcholinesterase; in assay [1]) was > 100 µM throughout.

On to `COc1cccc2c(=O)c3ccccc3n(Cc3cn(Cc4nc(-c5ccc(C)cc5)no4)nn3)c12` [4-Methoxy-10-((1-((3-(p-tolyl)-1,2,4-oxadiazol-5-yl)methyl)-1H-1,2,3-triazol-4-yl)methyl)acridin-9(10H)-one (10e)], for which the IC50 (at Acetylcholinesterase; in assay [1]) was > 100 µM each time.

Regarding `O=c1c2ccccc2n(Cc2cn(Cc3nc(-c4ccc(Br)cc4)no3)nn2)c2ccccc12` [10-((1-((3-(4-Bromophenyl)-1,2,4-oxadiazol-5-yl)methyl)-1H-1,2,3-triazol-4-yl)methyl)acridin-9(10H)-one (10d)], the IC50 was 67.4 µM at Acetylcholinesterase and > 100 µM in assay [1].

As to `Cc1ccc2c(c1)c(=O)c1ccccc1n2Cc1cn(Cc2nc(-c3ccc(Cl)cc3)no2)nn1` [10-((1-((3-(4-Chlorophenyl)-1,2,4-oxadiazol-5-yl)methyl)-1H-1,2,3-triazol-4-yl)methyl)-2-methylacridin-9(10H)-one (10h)], the IC50 (against Acetylcholinesterase; in assay [1]) was > 100 µM in each case.

Regarding `COc1ccc(-c2noc(Cn3cc(Cn4c5ccccc5c(=O)c5cc(Cl)ccc54)nn3)n2)cc1` [2-Chloro-10-((1-((3-(4-methoxyphenyl)-1,2,4-oxadiazol-5-yl)methyl)-1H-1,2,3-triazol-4-yl)methyl)acridin-9(10H)-one (10m)], the half-inhibitory concentration (IC50) (against Acetylcholinesterase; in assay [1]) was > 100 µM throughout.

Take `O=c1c2ccccc2n(Cc2cn(Cc3nc(-c4ccc(Cl)cc4)no3)nn2)c2ccccc12` [10-((1-((3-(4-Chlorophenyl)-1,2,4-oxadiazol-5-yl)methyl)-1H-1,2,3-triazol-4-yl)methyl)acridin-9(10H)-one (10c)]: the concentration for half-maximal inhibition (IC50) stood at 24.7 µM at Acetylcholinesterase and 88.9 µM in assay [1].

With `Cc1ccc(-c2noc(Cn3cc(Cn4c5ccccc5c(=O)c5ccccc54)nn3)n2)cc1` [10-((1-((3-(p-Tolyl)-1,2,4-oxadiazol-5-yl)methyl)-1H-1,2,3-triazol-4-yl)methyl)acridin-9(10H)-one (10a)], the figures for the IC50 (on Acetylcholinesterase; in assay [1]) were 49 µM and > 100 µM, respectively.

In the case of `COc1ccc(-c2noc(Cn3cc(Cn4c5ccccc5c(=O)c5ccccc54)nn3)n2)cc1` [10-((1-((3-(4-Methoxyphenyl)-1,2,4-oxadiazol-5-yl)methyl)-1H-1,2,3-triazol-4-yl)methyl)acridin-9(10H)-one (10b)], the IC50 against Acetylcholinesterase was 11.5 µM; in assay [1], > 100 µM.

With `COc1ccc(-c2noc(Cn3cc(Cn4c5ccccc5c(=O)c5cccc(OC)c54)nn3)n2)cc1` [4-Methoxy-10-((1-((3-(4-methoxyphenyl)-1,2,4-oxadiazol-5-yl)methyl)-1H-1,2,3-triazol-4-yl)methyl)acridin-9(10H)-one (10f)], the IC50 (against Acetylcholinesterase; in assay [1]) was > 100 µM in each case.

For the compound `COc1ccc2c(c1)c(=O)c1ccccc1n2Cc1cn(Cc2nc(-c3ccc(Cl)cc3)no2)nn1` [10-((1-((3-(4-Chlorophenyl)-1,2,4-oxadiazol-5-yl)methyl)-1H-1,2,3-triazol-4-yl)methyl)-2-methoxyacridin-9(10H)-one (10k)], the IC50 against Acetylcholinesterase was 77.8 µM; in assay [1], > 100 µM.

On to `Cc1ccc(-c2noc(Cn3cc(Cn4c5ccccc5c(=O)c5cc(Cl)ccc54)nn3)n2)cc1` [2-Chloro-10-((1-((3-(p-tolyl)-1,2,4-oxadiazol-5-yl)methyl)-1H-1,2,3-triazol-4-yl)methyl)acridin-9(10H)-one (10l)], for which the IC50 (against Acetylcholinesterase; in assay [1]) was > 100 µM throughout.

As to `COc1ccc(-c2noc(Cn3cc(Cn4c5ccccc5c(=O)c5cc(Br)ccc54)nn3)n2)cc1` [2-Bromo-10-((1-((3-(4-methoxyphenyl)-1,2,4-oxadiazol-5-yl)methyl)-1H-1,2,3-triazol-4-yl)methyl)acridin-9(10H)-one (10o)], the IC50 (at Acetylcholinesterase; in assay [1]) was > 100 µM throughout.
